This assay has as its target Histone deacetylase 2 (Homo sapiens, UniProt Q92769). As to the kind of experiment: Inhibition of human HDAC2 using RHKKAc as substrate by fluorescence based analysis.
Histone deacetylase 2, sequence (Q92769 whole entry): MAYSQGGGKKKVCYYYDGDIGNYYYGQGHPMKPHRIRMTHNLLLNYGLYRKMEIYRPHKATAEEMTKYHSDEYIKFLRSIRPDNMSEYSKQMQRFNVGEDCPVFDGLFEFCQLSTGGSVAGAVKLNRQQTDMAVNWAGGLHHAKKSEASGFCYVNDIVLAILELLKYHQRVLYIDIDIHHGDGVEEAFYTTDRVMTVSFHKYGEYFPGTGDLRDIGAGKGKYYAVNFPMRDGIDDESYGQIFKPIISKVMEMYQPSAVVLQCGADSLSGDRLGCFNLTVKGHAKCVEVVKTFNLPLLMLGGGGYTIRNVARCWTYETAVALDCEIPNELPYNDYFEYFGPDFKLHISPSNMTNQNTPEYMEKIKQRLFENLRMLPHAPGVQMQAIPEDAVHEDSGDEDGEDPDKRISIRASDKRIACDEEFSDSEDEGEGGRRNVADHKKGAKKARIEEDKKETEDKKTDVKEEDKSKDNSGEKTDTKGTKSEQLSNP
`NC(=O)[C@@H]1Cc2c([nH]c3ccccc23)[C@H](c2ccc(/C=C/C(=O)NO)cc2)N1` showed an IC50 of 0.45 µM.
The molecule `NC(=O)[C@H]1Cc2c([nH]c3ccccc23)[C@H](c2ccc(/C=C/C(=O)NO)cc2)N1` displayed an IC50 of 3.32 µM.
The value for `NC(=O)[C@@H](Cc1c[nH]c2ccccc12)NCc1ccc(/C=C/C(=O)NO)cc1` was 0.42 µM.
`Cc1[nH]c2ccccc2c1C[C@H](NCc1ccc(/C=C/C(=O)NO)cc1)C(N)=O` gave an IC50 of 0.15 µM. Against the preceding molecule, the IC50 is about 2.8-fold lower.
As to `NC(=O)[C@@H]1Cc2c([nH]c3ccccc23)[C@@H](c2ccc(/C=C/C(=O)NO)cc2)N1`, the half-maximal inhibitory concentration (IC50) is 0.45 µM.
The same measure for `NC(=O)[C@H](Cc1c[nH]c2ccccc12)NCc1ccc(/C=C/C(=O)NO)cc1`: 0.35 µM.
Turning to `NC(=O)[C@H]1Cc2c([nH]c3ccccc23)[C@@H](c2ccc(/C=C/C(=O)NO)cc2)N1`, the 50% inhibitory concentration (IC50) was determined as 3.32 µM.
The same measure for `Cc1[nH]c2ccccc2c1C[C@@H](NCc1ccc(/C=C/C(=O)NO)cc1)C(N)=O`: 0.53 µM.

For the origin of these results see ChEMBL document CHEMBL6153148, “Carboxamide-Bearing Panobinostat Analogues Designed To Interact with E103-D104 at the Cavity Opening of Class I HDAC Isoforms” (ACS Med Chem Lett, 2025).
